Patent publication US9636317B2, “Compositions and methods of use of phorbol esters” (priority 2007, dated 2017)
“And” between values parts separate entries of the source, which are not always exact repeats. Equal entries are not always repeated.

Experiments:
lymphoma = test: Treatment of lymphoma (patient case); format: in vivo, human
Description: Patient five was diagnosed with a re-occurrence of lymphoma and a mass of 3.5 cm in diameter. […] As of 2011, they have been in remission for three years.

[1] = Treatment of individuals who have suffered a stroke (patient cases); format: in vivo, human
Procedure: Patient seven, suffered a stroke eighteen months prior to treatment with TPA. At the time TPA treatment was initiated, they were unable to walk without a cane, had difficulty with both their left hand and left leg and was tired and weak. They received injections of 1 ampoule containing 0.19 mg of TPA (0.125 mg/m^2) every other day for four weeks, then 0.24 mg of TPA (1.25×0.125 mg/m^2) every other day for 2 weeks, and then 0.26 mg of TPA (1.5×0.125 mg/m^2) every other day for an additional 3 weeks.
Patient four, suffered a stroke seven years prior to beginning treatment with TPA. They received 3-4 injections of 0.19 mg of TPA (0.125 mg/m^2) per week for ten weeks for a total of 35 injections.

[2] = Third clinical study of HIV+ patients: periphery blood profile; format: in vivo, human; conditions: one value per patient
Procedure: Each patient in the study received 150 μg of TPA in 200 ml of sterile saline by intravenous infusion over a 1.5 to 2 hour period daily for 60 days for a total administered dose of 9.0 mg. Following completion of the 60 days of TPA therapy, these patients remained under observation for an additional 60 days though the received no further treatment.
CD3, CD4 and CD8 levels in peripheral blood were quantitated prior to starting treatment, and again at 30 and 60 days using flow cytometry and the appropriate antibodies obtained from B.D. Bioscience, San Diego, Calif. Viral load was determined using conventional methods at Kuang Ann men Hospital, Beijing, China. Patients RBC, WBC, platelets and hemoglobin levels were also measured. […]

[3] = Reduction of periorbital hyperpigmentation; format: in vivo, human; conditions: 6 women and 1 man
Procedure: 6 women and 1 man with excessive periorbital hyperpigmentation were treated with TPA.

CD3, CD4, CD8 = test: Second clinical study of HIV+ patients: CD3, CD4, CD8; format: in vivo, human; design: CD4 / CD8 / CD3: unit not given here; conditions: for CD4 / CD3 / CD8: one value per patient
Procedure: (§1) Nine of the patients in Example III were given a second treatment of TPA. Of these nine, seven were asymptomatic at the beginning of the second trial. A tenth patient (patient #2a) who was symptomatic and had not previously been treated with TPA was added to the study. Each patient was administered a weight adjusted dosage of TPA (75 μg/sq m) in 200 ml of sterile saline intravenously over one hour. This dosage was given to each patient once a day for ten consecutive days followed by a rest period of ten days for three cycles and a total of 30 doses of TPA. Patients 5a, 6a, and 8a stopped taking anti-AIDS drugs one month prior to beginning the TPA treatment and beginning again one month after the third cycle. Patients 1-4-a, 7a, and 9a-10a continued taking anti-AIDS drugs throughout the treatment.
(§2) Blood samples were taken three days prior to starting treatment, after completing the first 10 day cycle of TPA infusion and again after the last TPA infusion and CD3, CD4, CD8, WBC, RBC, HGB and platelets were measured.

metastatic liver cancer = test: Treatment of liver cancer (patient case); format: in vivo, human; conditions: three injections of 0.19 mg TPA; before 50,000+
Description: Patient X, age ? was diagnosed with metastatic liver cancer. Their initial alpha fetoprotein level was 48,813. They were given chemotherapy and radiation treatments but their alpha fetoprotein level remained elevated at 50,000+.

[4] = test system: circulating white blood cells and neutrophils; conditions: patients whose bone marrow function has been depressed by chemotherapy; cited from earlier work
HIV = test: Second clinical study of HIV+ patients: blood HIV count; format: in vivo; conditions: for BLOOD HIV COUNT LOG VALUE / BLOOD HIV COUNT RESULTS: one value per patient
Procedure: as §1, §2

terminal lung cancer = test: Treatment of lung cancer (patient case); format: in vivo, human; conditions: 35 injections, 0.19 to 0.26 mg TPA three to four times a week
Description: Patient ten was diagnosed with terminal lung cancer which was refractory to chemotherapy. The cancer metastasized into their bones leaving them unable to walk.

[5] = Treatment of carpal tunnel syndrome (patient case); format: in vivo, human
Description: Patient with burning, tingling, pain and numbness in their fingers.

[6] = Treatment of myasthenia gravis (patient case); format: in vivo, human; conditions: 35 injections of TPA, concurrent dexamethasone
Procedure: Patient eleven, suffered from myasthenia gravis for more than 40 years. They were taking dexamethasone and concurrently and was injected with 1 ampoule containing 0.19 mg of TPA (0.125 mg/m^2) every other day for four weeks, then 0.24 mg of TPA (1.25×0.125 mg/m^2) every other day for 2 weeks, and 0.26 mg of TPA (1.5×0.125 mg/m^2) every other day for an additional 3 weeks for a total of 35 injections of TPA. They no longer need the dexamethasone and is now asymptomatic.

terminal breast cancer = test: Treatment of breast cancer (patient case); format: in vivo, human; conditions: 35 injections, 0.18 to 0.26 mg TPA three to four times a week
Description: Patient six was diagnosed with terminal breast cancer. They were unresponsive to either radiation or chemotherapy and the cancer had metastasized into the bone leaving their wheelchair bound.

[7] = After first 10-day TPA infusion cycle
[8] = After third 10-day TPA infusion cycle

CCCCCCCCCCCCCC(=O)O[C@@H]1[C@@H](C)[C@@]2(O)[C@@H](C=C(CO)C[C@]3(O)C(=O)C(C)=C[C@@H]23)[C@@H]2C(C)(C)[C@]12OC(C)=O [TPA, 12-O-tetradecanoylphorbol-13-acetate]
lymphoma mass (3.5 cm in diameter) (lymphoma; 15 injections of 0.19 mg TPA every other day for 30 days): the mass disappeared | duration of remission (lymphoma; as of 2011): three years | recovery after stroke ([1]; stroke eighteen months before, 0.19, 0.24, 0.26 mg TPA every other day over 9 weeks): recovered fully | mobility in their face ([1]; stroke seven years before, 35 injections of 0.19 mg TPA): regained mobility in their face | improvement in the mobility of their right side ([1]; stroke seven years before, 35 injections of 0.19 mg TPA in ten weeks): 80% | PLt ([2]; Fifteen Days After TPA): 1.69e+11 L⁻¹ and 2.19e+11 L⁻¹ and 4.15e+11 L⁻¹ and 1.51e+11 L⁻¹ and 2.08e+11 L⁻¹ and 2.4e+11 L⁻¹ | RBC ([2]; Fifteen Days After TPA): 4.03e+12 L⁻¹ and 3.41e+12 L⁻¹ and 3.65e+12 L⁻¹ and 2.98e+12 L⁻¹ and 3.69e+12 L⁻¹ and 3.88e+12 L⁻¹ | Rb ([2]; Fifteen Days After TPA): 114 g/L and 101 g/L and 142 g/L and 118 g/L and 141 g/L and 140 g/L | WBC ([2]; Fifteen Days After TPA): 4.1 ×10^9/L and 5 ×10^9/L and 8.1 ×10^9/L (2×) and 6.4 ×10^9/L and 9 ×10^9/L | PLt ([2]; Forty Days After TPA): 3.04e+11 L⁻¹ and 1.52e+11 L⁻¹ and 2.62e+11 L⁻¹ and 2.91e+11 L⁻¹ and 1.31e+11 L⁻¹ and 1.49e+11 L⁻¹ | RBC ([2]; Forty Days After TPA): 3.9e+12 L⁻¹ and 4.44e+12 L⁻¹ and 4.13e+12 L⁻¹ and 3.86e+12 L⁻¹ and 3.49e+12 L⁻¹ and 4.14e+12 L⁻¹ | Rb ([2]; Forty Days After TPA): 125 g/L and 109 g/L and 110 g/L and 124 g/L and 116 g/L and 131 g/L | WBC ([2]; Forty Days After TPA): 4.6 ×10^9/L (2×) and 3.9 ×10^9/L (2×) and 6.2 ×10^9/L and 4.9 ×10^9/L | PLt ([2]; Sixty Days After TPA): 2.21e+11 L⁻¹ and 2.27e+11 L⁻¹ and 2.39e+11 L⁻¹ and 2.76e+11 L⁻¹ and 1.21e+11 L⁻¹ and 2.22e+11 L⁻¹ | RBC ([2]; Sixty Days After TPA): 4.55e+12 L⁻¹ and 4.31e+12 L⁻¹ and 4.04e+12 L⁻¹ and 4.1e+12 L⁻¹ and 3.34e+12 L⁻¹ and 4.56e+12 L⁻¹ | Rb ([2]; Sixty Days After TPA): 126 g/L and 96 g/L and 99 g/L (2×) and 123 g/L and 136 g/L | WBC ([2]; Sixty Days After TPA): 8.8e+09 L⁻¹ and 4.4e+09 L⁻¹ and 6.2e+09 L⁻¹ and 5.1e+09 L⁻¹ and 7.7e+09 L⁻¹ and 3.5e+09 L⁻¹ | PLt ([2]; Thirty Days After Stopping TPA): 2.72e+11 L⁻¹ and 1.93e+11 L⁻¹ and 2.78e+11 L⁻¹ and 2.24e+11 L⁻¹ and 1.78e+11 L⁻¹ | RBC ([2]; Thirty Days After Stopping TPA): 4.55e+12 L⁻¹ and 4.4e+12 L⁻¹ and 3.9e+12 L⁻¹ and 4.71e+12 L⁻¹ and 3.42e+12 L⁻¹ | Rb ([2]; Thirty Days After Stopping TPA): 130 g/L and 104 g/L and 110 g/L and 144 g/L and 100 g/L | WBC ([2]; Thirty Days After Stopping TPA): 7.5e+09 L⁻¹ and 6.5e+09 L⁻¹ and 8.4e+09 L⁻¹ and 3.8e+09 L⁻¹ and 4.8e+09 L⁻¹ | PLt ([2]; Thirty Days After TPA): 2.32e+11 L⁻¹ and 2.47e+11 L⁻¹ and 3.45e+11 L⁻¹ and 1.77e+11 L⁻¹ and 2.28e+11 L⁻¹ and 2.75e+11 L⁻¹ | RBC ([2]; Thirty Days After TPA): 4.48e+12 L⁻¹ and 3.83e+12 L⁻¹ and 4.03e+12 L⁻¹ and 3.2e+12 L⁻¹ and 4.32e+12 L⁻¹ and 4.35e+12 L⁻¹ | Rb ([2]; Thirty Days After TPA): 116 g/L and 113 g/L and 145 g/L and 121 g/L and 154 g/L and 148 g/L | WBC ([2]; Thirty Days After TPA): 5.9e+09 L⁻¹ and 5.2e+09 L⁻¹ and 4.3e+09 L⁻¹ and 4e+09 L⁻¹ and 4.5e+09 L⁻¹ and 8.9e+09 L⁻¹ | inflammation and hyperpigmentation in the periorbital area [3]: reduced the inflammation and hyperpigmentation in the periorbital area | CD4 (CD3, CD4, CD8; After first 10-day TPA infusion cycle, 75 μg/sq m i.v. daily): 76 and 460 and 189 and 91 and 285 and 729 and 519 and 136 and 74 and 7 | CD3 (CD3, CD4, CD8; [7]): 476 and 1200 and 823 and 1598 and 758 and 3148 and 1143 and 712 and 333 and 1323 | CD8 (CD3, CD4, CD8; [7]): 335 and 729 and 584 and 1507 and 429 and >2000 and 547 and 574 and 261 and 907 | CD3 (CD3, CD4, CD8; [8]): 625 and 2033 and 1193 and 1257 and 938 and 3347 and 1295 and 1317 and 308 and 2037 | CD4 (CD3, CD4, CD8; [8]): 137 and 1002 and 205 and 94 and 276 and 786 and 495 and 100 and 63 and 19 | CD8 (CD3, CD4, CD8; [8]): 543 and 980 and 916 and 1127 and 466 and >2000 and 733 and 1221 and 208 and 1129 | CD3 (summary of Table 3) (CD3, CD4, CD8; after the first and third infusion with TPA): increase in CD3 in all patients | alpha fetoprotein levels (metastatic liver cancer): returned to normal levels within four months | circulating white blood cells and neutrophils [4]: increase in circulating white blood cells and neutrophils | BLOOD HIV COUNT LOG VALUE (HIV; after first cycle TPA infusion): 5.490 and 2.371 and 4.825 and 5.217 and 5.450 and 5.475 | BLOOD HIV COUNT RESULTS (HIV; after first cycle TPA infusion): 3.09 × 10^5 copies/ml and lower the 500 copies/ml and undetectable (4×) and 6.68 × 10^4 copies/ml and 1.65 × 10^5 copies/ml and 2.82 × 10^5 copies/ml and 2.99 × 10^5 copies/ml | BLOOD HIV COUNT LOG VALUE (HIV; after third cycle TPA infusion): 5.966 and 3.980 and 3.376 and 4.792 and 5.371 and 5.270 and 5.973 | BLOOD HIV COUNT RESULTS (HIV; after third cycle TPA infusion): 9.24 × 10^5 copies/ml and 9.55 × 10^3 copies/ml and 2.38 × 10^3 copies/ml and undetectable (3×) and 6.20 × 10^4 copies/ml and 2.35 × 10^5 copies/ml and 1.86 × 10^5 copies/ml and 9.41 × 10^5 copies/ml | viral load of HIV (summary) (HIV; ten patients): undetectable in three patients (<200); it increased somewhat in six others and was reduced in one | outcome, terminal lung cancer metastasized into bones (terminal lung cancer): in remission and able to walk normally | use of hands [5]: regained full use of their hands | myasthenia gravis symptoms [6]: asymptomatic | outcome, terminal breast cancer metastasized into the bone (terminal breast cancer): in remission and able to walk normally
